In patent US10822337B2, “TGF-β inhibitorC” (Rigel Pharmaceuticals, Inc., priority 2015, dated 2020):

Tests used:
[1] = test system: GDF8 signaling (GDF pSMAD, MPC11); experiment: AlphaScreen SureFire SMAD3 (p-Ser423/425) assay, inhibition of GDF8 signaling; type: cell-based; conditions: Mus musculus, MPC-11, p-SMAD-3 (Ser423/425) in cell lysate after GDF8 stimulation
[2] = test system: TGF-β signaling (TGF-β pSMAD, MPC-11); experiment: AlphaScreen SureFire SMAD3 (p-Ser423/425) assay, inhibition of TGF-β signaling; type: cell-based; conditions: Mus musculus, p-SMAD-3 (Ser423/425) in cell lysate after TGF-β stimulation
Method in brief: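 Phosphorylation of endogenous SMAD-3 at Ser423/425 was quantified with an AlphaScreen SureFire assay. Cells were exposed to compound for about 10 minutes, stimulated with TGF-β, and lysed in 1× Lysis Buffer. Lysate (5 μL) was combined with Reaction/Activation buffer plus Acceptor beads for 2 hours, then Donor beads for 1½ hours, and read on a plate reader.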

SMILES	IC50 [1]	IC50 [2]
FC(F)(F)c1cccc(-c2nn3c(c2-c2ccc4nccn4c2)CCC3)c1 [Compound 34, 6-(2-(3-Trifluoromethylphenyl)-5,6-dihydro-4H-pyrrolo[1,2-b]pyrazol-3-yl)imidazo[1,2-a]pyridine]	8.3 nM	34.8 nM
Cc1cccc(-c2nn3c(c2-c2ccc4[nH]ncc4c2)OCCC3)c1 [Compound 40, 3-(1H-Indazol-5-yl)-2-(m-tolyl)-6,7-dihydro-5H-pyrazolo[5,1-b][1,3]oxazine]	657 nM	2450 nM
Fc1cc(F)c(-c2nn3c(c2-c2ccc4cn[nH]c4c2)CCC3)cc1F [Compound 113, 6-(2-(2,4,5-Trifluorophenyl)-5,6-dihydro-4H-pyrrolo[1,2-b]pyrazol-3-yl)-1H-indazole]	226 nM	1470 nM
Cc1cc(-c2nn3c(c2-c2ccc4ncccc4c2)CCC3)ccc1F [Compound 47, 6-(2-(4-Fluoro-3-methylphenyl)-5,6-dihydro-4H-pyrrolo[1,2-b]pyrazol-3-yl)quinoline]	335 nM	2520 nM
FC(F)(F)c1cccc(-c2nn3c(c2-c2ccc4nccnc4c2)OCC3)c1 [Compound 64, 7-(Quinoxalin-6-yl)-6-(3-trifluoromethylphenyl)-2,3-dihydropyrazolo[5,1-b]oxazole]	337 nM	1480 nM
Fc1ccc(-c2nn3c(c2-c2ccc4ncsc4c2)CCC3)cc1 [Compound 14, 6-(2-(4-Fluorophenyl)-5,6-dihydro-4H-pyrrolo[1,2-b]pyrazol-3-yl)benzo[d]thiazole]	295 nM	976 nM
COc1cccc(-c2nn3c(c2-c2ccc4ncsc4c2)CCC3)c1 [Compound 30, 6-(2-(3-Methoxyphenyl)-5,6-dihydro-4H-pyrrolo[1,2-b]pyrazol-3-yl)benzo[d]thiazole]	48.6 nM	264 nM
Clc1cccc(-c2nn3c(c2-c2ccc4ncnn4c2)CCC3)c1 [Compound 107, 6-(2-(3-Chlorophenyl)-5,6-dihydro-4H-pyrrolo[1,2-b]pyrazol-3-yl)-[1,2,4]triazolo[1,5-a]pyridine]	34.7 nM	152 nM
Fc1ccc(-c2nn3c(c2-c2ccc4ncnn4c2)CCC3)cc1 [Compound 103, 6-(2-(4-Fluorophenyl)-5,6-dihydro-4H-pyrrolo[1,2-b]pyrazol-3-yl)-[1,2,4]triazolo[1,5-a]pyridine]	131 nM	520 nM
Fc1cccc(-c2nn3c(c2-c2ccc4cn[nH]c4c2)CCC3)c1 [Compound 78, 6-(2-(3-Fluorophenyl)-5,6-dihydro-4H-pyrrolo[1,2-b]pyrazol-3-yl)-1H-indazole]	812 nM	2300 nM

Now from value to molecule:

IC50 [1]	IC50 [2]	SMILES
106 nM	350 nM	Fc1cc(F)c(-c2nn3c(c2-c2ccc4[nH]ncc4c2)CCC3)cc1Cl [Compound 186, 5-(2-(5-Chloro-2,4-difluorophenyl)-5,6-dihydro-4H-pyrrolo[1,2-b]pyrazol-3-yl)-1H-indazole]
272 nM	872 nM	Fc1cc(F)c(-c2nn3c(c2-c2ccc4ncccc4c2)CCC3)cc1Cl [Compound 190, 6-(2-(5-Chloro-2,4-difluorophenyl)-5,6-dihydro-4H-pyrrolo[1,2-b]pyrazol-3-yl)quinoline]
587 nM	1750 nM	Cc1cc(-c2nn3c(c2-c2ccc4cn[nH]c4c2)CCC3)c(F)cc1F [Compound 180, 6-(2-(2,4-Difluoro-5-methylphenyl)-5,6-dihydro-4H-pyrrolo[1,2-b]pyrazol-3-yl)-1H-indazole]
85.3 nM	190 nM	FC(F)(F)Oc1cccc(-c2nn3c(c2-c2ccc4cn[nH]c4c2)CCC3)c1 [Compound 123, 6-(2-(3-Trifluoromethoxyphenyl)-5,6-dihydro-4H-pyrrolo[1,2-b]pyrazol-3-yl)-1H-indazole]
247 nM	701 nM	Fc1ccc(-c2nn3c(c2-c2ccc4ncnn4c2)CCC3)c(F)c1F [Compound 133, 6-(2-(2,3,4-Trifluorophenyl)-5,6-dihydro-4H-pyrrolo[1,2-b]pyrazol-3-yl)-[1,2,4]triazolo[1,5-a]pyridine]
